Values of other authors, collected in patent EP1337618B1, “CLEANING TABLETS” (UNILEVER N.V., priority 2000, dated 2002).
Where two headings read alike, the source gives them in different places.

[1] = at 20°C, other common materials

Compound | Water Solubility [1] [g/100g] | solubility in water (at 20°C) | Water Solubility (deionised water at 20°C, highly water-soluble materials) [g/100g]
O=BO[O-].[Na+] [Sodium perborate anhydrous] | 3.7 |  | 
O=P(O)(O)OP(=O)(O)OP(=O)(O)O [Sodium tripolyphosphate anhydrous] | 15 |  | 
NC(N)=O [Urea] |  | exceeding 100 gms per 100ml water | >100
